# Where two headings read alike, the source gives them in different places.
# Columns and labels:
# [1] = system: AECO001 (ATCC25922); assay: MIC broth microdilution, AECO001; format: cell-based, E. coli; conditions: for MIC: Escherichia coli
# Procedure: (§1) Bacterial isolates were cultivated from −70° C. frozen stocks by overnight passages at 35° C. in ambient air on Mueller-Hinton agar (Beckton Dickinson, Franklin Lakes, N.J.). Clinical isolates tested were obtained from various geographically diverse hospitals in the US and abroad (Focus Diagnostics, Herndon, Va. and JMI, North Liberty, Iowa). Quality control strains were from the American Type Culture Collection (ATCC; Rockville, Md.). Additional primary panel strains were generated using standard molecular biology techniques.
# (§2) Minimum Inhibitory Concentrations (MICs) were determined by the broth microdilution method in accordance with the Clinical and Laboratory Standards Institute (CLSI) guidelines. In brief, organism suspensions were adjusted to a 0.5 McFarland standard to yield a final inoculum between 3×10^5 and 7×10^5 colony-forming units (CFU)/mL. Drug dilutions and inocula were made in sterile, cation adjusted Mueller-Hinton Broth (Beckton Dickinson). An inoculum volume of 100 μL was added to wells containing 100 μL of broth with 2-fold serial dilutions of drug. All inoculated microdilution trays were incubated in ambient air at 35° C. for 18-24 hours. […] Performance of the assay was monitored by the use of laboratory quality-control strains and levofloxacin, a compound with a defined MIC spectrum, in accordance with CLSI guidelines.
# (§3) *AECO001 is ATCC25922, AECO063 is ATCC25922 bearing an acrAB mutation, APAE001 is ATCC27853, APAE006 is a strain of P. aeruginosa in which all efflux pumps are inactivated, APAE006+PMBN indicates MICs with the indicated strain in the presence of 8 micrograms per milliliter of polymyxin B nonapeptide, AABA1060 is a clinical isolate of Acinetobacter baumannii, ASAU001 is a laboratory strain of S. aureus (ATCC29213).
# [2] = system: AECO063 (ATCC25922 bearing an acrAB mutation); assay: microbe, parasite or virus in culture; format: cell-based, E. coli; conditions: Escherichia coli, ATCC25922, read-out: MIC AECO063
# Procedure: as §1, §2, §3
# [3] = system: APAE001 (ATCC27853); assay: MIC broth microdilution, APAE001; format: cell-based, P. aeruginosa; conditions: Pseudomonas aeruginosa, ATCC27853, read-out: MIC APAE001, APAE001 (ATCC27853)
# Procedure: as §1, §2, §3
# [4] = system: APAE006 (strain of P. aeruginosa in which all efflux pumps are inactivated); assay: microbe, parasite or virus in culture; format: cell-based; conditions: Pseudomonas aeruginosa, read-out: MIC APAE006, APAE006, all efflux pumps inactivated
# Procedure: as §1, §2, §3
# [5] = system: APAE006 in the presence of 8 micrograms per milliliter of polymyxin B nonapeptide; format: cell-based, P. aeruginosa; conditions: APAE006 with 8 micrograms per milliliter polymyxin B nonapeptide
# Procedure: as §1, §2, §3
# [6] = system: AABA1060 (clinical isolate of Acinetobacter baumannii); assay: MIC broth microdilution, AABA1060; format: cell-based; conditions: Acinetobacter baumannii, read-out: MIC AABA1060
# Procedure: as §1, §2, §3
# [7] = system: ASAU001 (laboratory strain of S. aureus, ATCC29213); assay: MIC broth microdilution, ASAU001; format: cell-based; conditions: Staphylococcus aureus, ATCC29213, read-out: MIC ASAU001
# Procedure: as §1, §2, §3
# [8] = ATCC25922, read-out: MIC AECO001
# [9] = ATCC25922, read-out: MIC AECO001 HSA AGP
Compound,"MIC [1, 8] [µg/mL]","MIC [1, 9] [µg/mL]",MIC [2] [µg/mL],MIC [3] [µg/mL],MIC [4] [µg/mL],MIC APAE006 + PMBN [5],MIC [6] [µg/mL],MIC [7] [µg/mL],"Ratio of MICs on AECO001 [Cpd (A = —CHCH3NH2)/Cpd (A = —C(CH3)2NH2)] ([1]; MIC of paired compound with A = —CHCH3NH2 divided by MIC of compound with A = —C(CH3)2NH2, n=2 data, pairs identical except for the A moiety)"
CC(C)(N)[C@H](NC(=O)c1ccc(C#CC#Cc2ccc(CN3CCS(=O)(=O)CC3)cc2)cc1)C(=O)NO [Example 86-7],< 2,2 to 16,< 2,2 to 16,< 2,A (MIC's of 2.0 μg/mL or less = A),< 2,16 to 64,–
"CC(C)(N)C(NC(=O)c1ccc(C#CC#Cc2ccc(CNC3CC3)cc2)cc1)C(=O)NO (centres unmarked) [Example 87-1, N-(2-Amino-1-hydroxycarbamoyl-2-methyl-propyl)-4-[4-(4-cyclopropylaminomethyl-phenyl)-buta-1,3-diynyl]-benzamide]",< 2,2 to 16,< 2,< 2,< 2,A (MIC's of 2.0 μg/mL or less = A),< 2,16 to 64,–
CC(C)(N)[C@H](NC(=O)c1ccc(C#CC#Cc2ccc(CNC3CC3)cc2)cc1)C(=O)NO [Example 87-4],< 2,2 to 16,< 2,< 2,< 2,A (MIC's of 2.0 μg/mL or less = A),< 2,16 to 64,–
CC(C)(N)C(NC(=O)c1ccc(C#CC#Cc2ccncc2)cc1)C(=O)NO (centres unmarked) [Example 88-6],< 2,2 to 16,< 2,2 to 16,< 2,A (MIC's of 2.0 μg/mL or less = A),2 to 16,16 to 64,–
CC(C)(O)[C@H](NC(=O)c1ccc(C#CC#Cc2ccccn2)cc1)C(=O)NO [Example 88-7],< 2,2 to 16,< 2,2 to 16,< 2,A (MIC's of 2.0 μg/mL or less = A),2 to 16,16 to 64,–
CC(C)(N)[C@H](NC(=O)c1ccc(C#CC#Cc2cccnc2)cc1)C(=O)NO [Example 88-8],< 2,< 2,< 2,< 2,< 2,A (MIC's of 2.0 μg/mL or less = A),2 to 16,16 to 64,5.1
C[C@@H](N)[C@H](NC(=O)c1ccc(C#CC#Cc2cccs2)cc1)C(=O)NO [Example 88-12],< 2,2 to 16,< 2,< 2,< 2,A (MIC's of 2.0 μg/mL or less = A),< 2,2 to 16,–
CC(C)(O)[C@H](NC(=O)c1ccc(C#CC#Cc2ccsc2)cc1)C(=O)NO [Example 88-14],< 2,2 to 16,< 2,< 2,< 2,A (MIC's of 2.0 μg/mL or less = A),< 2,16 to 64,–
CC(C)(N)[C@H](NC(=O)c1ccc(C#CC#Cc2ccsc2)cc1)C(=O)NO [Example 88-15],< 2,< 2,< 2,< 2,< 2,A (MIC's of 2.0 μg/mL or less = A),< 2,2 to 16,–
CC(C)(N)[C@H](NC(=O)c1ccc(C#CC#Cc2cncs2)cc1)C(=O)NO [Example 88-16],< 2,2 to 16,< 2,< 2,< 2,A (MIC's of 2.0 μg/mL or less = A),< 2,16 to 64,–
C[C@@H](N)[C@H](NC(=O)c1ccc(C#CC#Cc2cnc(N)s2)cc1)C(=O)NO [Example 88-17],< 2,16 to 64,< 2,< 2,< 2,A (MIC's of 2.0 μg/mL or less = A),2 to 16,16 to 64,–

# Source: US9617256B2 (priority 2007, dated 2017)
